Results published in PMC7089538, “The effects of intra-stomach obestatin administration on intestinal contractility in neonatal piglets fed milk formula” (PLoS ONE, 2020).
Marks after values point to notes of the source that are not given here. Where no end group is shown, it is not given here.

Experiments:
Type in all cases: in vivo, piglets (Polish Landrace x Pietrain)
middle jejunum [1] = assay: ACh-stimulated or atropine-treated contractions; conditions: 6 days, middle jejunum strips, mean ± SEM; for amplitude of atropine treated contractions: atropine pretreatment (ATR^-6)
Method: (§1) Piglets' BW was recorded every morning. […] The protein concentration in the milk formula was 20%. […] The tissues were attached to isotonic transducers (Letica Scientific Instruments, Spain) under a load of 1.0 g that were coupled with a PowerLab recording system (ADInstruments, Sydney, Australia). […] The tissues were then washed and allowed to equilibrate. […] Half of randomly selected jejunal segments were pre-treated with atropine.

duodenum [2] = assay: ACh-stimulated or atropine-treated contractions; conditions: 6 days, duodenum strips, mean ± SEM
Method: as §1

duodenum [3] = assay: ACh-stimulated or atropine-treated contractions; conditions: 6 days, duodenum strips, atropine pretreatment (ATR^-6), mean ± SEM
middle jejunum [4] = assay: Spontaneous contractility of whole-thickness preparations in organ bath after 6-day enteral obestatin; conditions: 6 days, middle jejunum (Fig 2)
Method: as §1

duodenum [5] = assay: as above; conditions: O15: obestatin 15 μg/kg BW intra-stomach every 8 h, 6 days; duodenal segment (Fig 2)
Method: as §1

middle jejunum [6] = assay: Histology: thickness of intestinal muscularis layer; conditions: 6 days, H&E histometry, mean ± SEM
Method: (§2) Piglets' BW was recorded every morning. […] The protein concentration in the milk formula was 20%. […] Briefly, the samples were routinely embedded in paraffin and cut into 4.5 μm sections and applied to silane-treated slides. Next, the sections were immersed in xylene for dewaxing and then in descending grades of alcohol for rehydration. The segments were routinely stained using hematoxylin and eosin.

duodenum [7] = assay: as above; conditions: 6 days, H&E histometry, mean ± SEM
Method: as §2

[8] = O2: obestatin 2 μg/kg BW intra-stomach every 8 h, ACh^-7 (10^−7 M, cumulative)
[9] = O2: obestatin 2 μg/kg BW intra-stomach every 8 h, ACh^-8 (10^−8 M, cumulative)
[10] = O2: obestatin 2 μg/kg BW intra-stomach every 8 h
[11] = O10: obestatin 10 μg/kg BW intra-stomach every 8 h, ACh^-4 (10^−4 M, cumulative)
[12] = O10: obestatin 10 μg/kg BW intra-stomach every 8 h, ACh^-5 (10^−5 M, cumulative)
[13] = O10: obestatin 10 μg/kg BW intra-stomach every 8 h, ACh^-6 (10^−6 M, cumulative)
[14] = O10: obestatin 10 μg/kg BW intra-stomach every 8 h, ACh^-7 (10^−7 M, cumulative)
[15] = O10: obestatin 10 μg/kg BW intra-stomach every 8 h, ACh^-8 (10^−8 M, cumulative)
[16] = O10: obestatin 10 μg/kg BW intra-stomach every 8 h, ACh^-9 (10^−9 M, cumulative)
[17] = O10: obestatin 10 μg/kg BW intra-stomach every 8 h
[18] = O15: obestatin 15 μg/kg BW intra-stomach every 8 h, ACh^-4 (10^−4 M, cumulative)
[19] = O15: obestatin 15 μg/kg BW intra-stomach every 8 h, ACh^-5 (10^−5 M, cumulative)
[20] = O15: obestatin 15 μg/kg BW intra-stomach every 8 h, ACh^-6 (10^−6 M, cumulative)
[21] = O15: obestatin 15 μg/kg BW intra-stomach every 8 h, ACh^-7 (10^−7 M, cumulative)
[22] = O15: obestatin 15 μg/kg BW intra-stomach every 8 h, ACh^-8 (10^−8 M, cumulative)
[23] = O15: obestatin 15 μg/kg BW intra-stomach every 8 h, ACh^-9 (10^−9 M, cumulative)
[24] = O15: obestatin 15 μg/kg BW intra-stomach every 8 h

## FNAPFDVGIKLSGAQYQQHGRAL-NH2 [obestatin]
Middle jejunum [1]; [8]
  amplitude of ACh stimulated contractions: 6.1 ± 0.8 mm
Middle jejunum [1]; [9]
  amplitude of ACh stimulated contractions: 6.0 ± 0.7 mm
Middle jejunum [1]; [10]
  amplitude of atropine treated contractions: 0.97 ± 0.1^a^b mm
Middle jejunum [1]; [11]
  amplitude of ACh stimulated contractions: 12.5 ± 0.9^b mm
Middle jejunum [1]; [12]
  amplitude of ACh stimulated contractions: 10.1 ± 0.7 mm
Middle jejunum [1]; [13]
  amplitude of ACh stimulated contractions: 7.0 ± 0.9^b mm
Middle jejunum [1]; [14]
  amplitude of ACh stimulated contractions: 4.8 ± 0.9 mm
Middle jejunum [1]; [15]
  amplitude of ACh stimulated contractions: 4.6 ± 0.9 mm
Middle jejunum [1]; [16]
  amplitude of ACh stimulated contractions: 3.9 ± 0.8^a^b mm
Middle jejunum [1]; [17]
  amplitude of atropine treated contractions: 1.10 ± 0.2^b mm
Middle jejunum [1]; [18]
  amplitude of ACh stimulated contractions: 13.7 ± 0.8^b mm
Middle jejunum [1]; [19]
  amplitude of ACh stimulated contractions: 9.0 ± 0.8 mm
Middle jejunum [1]; [20]
  amplitude of ACh stimulated contractions: 7.3 ± 0.8^b mm
Middle jejunum [1]; [21]
  amplitude of ACh stimulated contractions: 6.8 ± 0.6 mm
Middle jejunum [1]; [22]
  amplitude of ACh stimulated contractions: 6.7 ± 0.7 mm
Middle jejunum [1]; [23]
  amplitude of ACh stimulated contractions: 6.6 ± 0.7^b mm
Middle jejunum [1]; [24]
  amplitude of atropine treated contractions: 1.20 ± 0.1^b mm
Duodenum [2]; O2: obestatin 2 μg/kg BW intra-stomach every 8 h, ACh^-4 (10^−4 M, cumulative)
  amplitude of ACh stimulated contractions: 14.1 ± 1.2^a^b mm
Duodenum [2]; O2: obestatin 2 μg/kg BW intra-stomach every 8 h, ACh^-5 (10^−5 M, cumulative)
  amplitude of ACh stimulated contractions: 11.2 ± 0.7 mm
Duodenum [2]; O2: obestatin 2 μg/kg BW intra-stomach every 8 h, ACh^-6 (10^−6 M, cumulative)
  amplitude of ACh stimulated contractions: 7.4 ± 0.9 mm
Duodenum [2]; [8]
  amplitude of ACh stimulated contractions: 7.1 ± 0.7 mm
Duodenum [2]; [9]
  amplitude of ACh stimulated contractions: 7.0 ± 0.7 mm
Duodenum [2]; O2: obestatin 2 μg/kg BW intra-stomach every 8 h, ACh^-9 (10^−9 M, cumulative)
  amplitude of ACh stimulated contractions: 6.2 ± 0.3 mm
Duodenum [2]; O2: obestatin 2 μg/kg BW intra-stomach every 8 h, atropine pretreatment (ATR^-6)
  amplitude of atropine treated contractions: 1.26 ± 0.2 mm
Duodenum [2]; [11]
  amplitude of ACh stimulated contractions: 12.3 ± 1.1^a^b mm
Duodenum [2]; [12]
  amplitude of ACh stimulated contractions: 8.2 ± 0.9 mm
Duodenum [2]; [13]
  amplitude of ACh stimulated contractions: 6.3 ± 0.9 mm
Duodenum [2]; [14]
  amplitude of ACh stimulated contractions: 6.1 ± 0.9 mm
Duodenum [2]; [15]
  amplitude of ACh stimulated contractions: 6.0 ± 0.8 mm
Duodenum [2]; [16]
  amplitude of ACh stimulated contractions: 5.9 ± 0.9 mm
Duodenum [2]; [18]
  amplitude of ACh stimulated contractions: 15.1 ± 0.4^b mm
Duodenum [2]; [19]
  amplitude of ACh stimulated contractions: 9.6 ± 0.6 mm
Duodenum [2]; [20]
  amplitude of ACh stimulated contractions: 6.7 ± 0.8 mm
Duodenum [2]; [21]
  amplitude of ACh stimulated contractions: 5.9 ± 0.6 mm
Duodenum [2]; [22]
  amplitude of ACh stimulated contractions: 5.4 ± 0.4 mm
Duodenum [2]; [23]
  amplitude of ACh stimulated contractions: 5.3 ± 0.5 mm
Duodenum [3]; [17]
  amplitude of atropine treated contractions: 0.97 ± 0.1 mm
Duodenum [3]; [24]
  amplitude of atropine treated contractions: 1.0 ± 0.1 mm
Middle jejunum [4]; [17]
  amplitude of spontaneous contractions compared to C: significant increase in the amplitude of contractions was observed in C piglets in comparison to O10 and O15 groups
Middle jejunum [4]; [24]
  amplitude of spontaneous contractions compared to C: significant increase in the amplitude of contractions was observed in C piglets in comparison to O10 and O15 groups
Duodenum [5]
  amplitude of spontaneous contractions compared to C: significantly higher
Middle jejunum [6]; [10]
  Thickness of muscularis layer: 88 ± 9^a μm
Middle jejunum [6]; [17]
  Thickness of muscularis layer: 63 ± 7^b μm
Middle jejunum [6]; [24]
  Thickness of muscularis layer: 66 ± 4^b μm
Duodenum [7]; [10]
  Thickness of muscularis layer: 106 ± 11^b μm
Duodenum [7]; [17]
  Thickness of muscularis layer: 107 ± 8^b μm
Duodenum [7]; [24]
  Thickness of muscularis layer: 89 ± 8^b μm
